Results reported in ChEMBL document CHEMBL1132036, “Inhibition of E. coli growth by fullerene derivatives and inhibition mechanism” (Bioorg Med Chem Lett, 1999).

How the values were obtained:
Escherichia coli [1] = assay: Compound was tested for inhibition of Escherichia coli growth; type: functional, organism-based
Escherichia coli [2] = assay: Compound was tested for inhibition of Escherichia coli dioxgen consumption.; type: functional

Row | Compound | IC50 (Escherichia coli [1]) | Dioxygen uptake rate (Escherichia coli [2])
1 | O=C(O)C1(C(=O)O)C23c4c5c6c7c8c9c%10c%11c%12c%13c%14c(c-5c5c%15c%16c(c%17c%18c2c2c4c7c4c8c7c%10c8c%10c%11c%11c%13c(c%14%15)c%13c%16c%14c%17c%15c%18c%16c2c4c2c7c8c4c(c%162)c%15c2c%14c%13c%11c%10c24)C513)C61C(C(=O)O)(C(=O)O)C9%121 (stereo not given) | 100 µM | 42.2 µM/min
2 | C[N+]1(C)CC23c4c5c6c7c8c4c4c2c2c9c%10c%11c%12c(c5c5c6c6c%13c%14c%15c%16c%17c%18c%19c%20c%21c%22c%23c%24c%25c(c-%16c(c8c%25c4c%24c2c%22c9c2c%21c4c%19c(c%18%14)c8c%13c5c%12c8c4c%112)C7C%156)C%17C%23%20)C%103C1.C[N+]1(C)CC23c4c5c6c7c8c4c4c2c2c9c%10c%11c%12c(c5c5c6c6c%13c%14c%15c%16c%17c%18c%19c%20c%21c%22c%23c%24c%25c(c-%16c(c8c%25c4c%24c2c%22c9c2c%21c4c%19c(c%18%14)c8c%13c5c%12c8c4c%112)C7C%156)C%17C%23%20)C%103C1.[I-].[I-] (stereo not given) | 5 µM | 4.1 µM/min
3 | C[N+]12CCN(CC1)C13c4c5c6c7c8c4c4c1c1c9c%10c%11c%12c(c5c5c6c6c%13c%14c%15c%16c%17c%18c%19c%20c%21c%22c%23c%24c%25c(c-%16c(c8c%25c4c%24c1c%22c9c1c%21c4c%19c(c%18%14)c8c%13c5c%12c8c4c%111)C7C%156)C%17C%23%20)C%1032 (stereo not given) | – | 13.7 µM/min
